Substitutions are numbered along the chain they refer to.
What was measured:
mutant MGL = biological target: T1, mutant MGL (Homo sapiens, UniProt Q99685, L169S/L176S); assay: MGL ThermoFluor assay - mutant; assay type: binding; conditions: qNMR-corrected compound concentration; read-out: MGL mutant ThermoFluor qKd
T1 construct: purified mutant MGL (mut-MGLL 11-313 L179S L186S)
T1 sequence (Q99685 1-303 L169S/L176S): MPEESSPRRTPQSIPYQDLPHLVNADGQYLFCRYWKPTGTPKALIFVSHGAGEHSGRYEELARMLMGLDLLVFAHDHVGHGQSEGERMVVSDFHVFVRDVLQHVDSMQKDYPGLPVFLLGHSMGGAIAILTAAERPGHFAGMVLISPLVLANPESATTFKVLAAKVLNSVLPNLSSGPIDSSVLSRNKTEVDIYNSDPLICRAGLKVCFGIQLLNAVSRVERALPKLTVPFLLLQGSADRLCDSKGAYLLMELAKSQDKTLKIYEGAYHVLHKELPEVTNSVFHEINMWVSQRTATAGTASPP
Experimental: The ThermoFluor (TF) assay is a 384-well plate-based binding assay that measures thermal stability of proteins^1,2. The experiments were carried out using instruments available from Johnson & Johnson Pharmaceutical Research & Development, LLC. TF dye used in all experiments was 1,8-ANS (Invitrogen: A-47). Final TF assay conditions used for MGL studies were 0.07 mg/ml of mutant MGL, 100 μM ANS, 200 mM NaCl, 0.001% Tween-20 in 50 mM PIPES (pH=7.0).
Screening compound plates contained 100% DMSO compound solutions at a single concentration. For follow-up concentration-response studies, compounds were arranged in a pre-dispensed plate (Greiner Bio-one: 781280), wherein compounds were serially diluted in 100% DMSO across 11 columns within a series. Columns 12 and 24 were used as DMSO reference and contained no compound. For both single and multiple compound concentration-response experiments, the compound aliquots (46 nL) were robotically predispensed directly into 384-well black assay plates (Abgene: TF-0384/k) using the Hummingbird liquid handler. Following compound dispension, protein and dye solutions were added to achieve the final assay volume of 3 μL. The assay solutions were overlayed with 1 μL of silicone oil (Fluka, type DC 200: 85411) to prevent evaporation.
Bar-coded assay plates were robotically loaded onto a thermostatically controlled PCR-type thermal block and then heated from 40 to 90° C. degrees at a ramp-rate of 1° C./min for all experiments. Fluorescence was measured by continuous illumination with UV light (Hamamatsu LC6), supplied via fiber optics and filtered through a band-pass filter (380-400 nm; >6 OD cutoff). Fluorescence emission of the entire 384-well plate was detected by measuring light intensity using a CCD camera (Sensys, Roper Scientific) filtered to detect 500±25 nm, resulting in simultaneous and independent readings of all 384 wells. A single image with 20-sec exposure time was collected at each temperature, and the sum of the pixel intensity in a given area of the assay plate was recorded vs temperature and fit to standard equations to yield the Tm^1. • 1. Pantoliano, M. W., Petrella, E. C., Kwasnoski, J. D., Lobanov, V. S., Myslik, J., Graf, E., Carver, T., Asel, E., Springer, B. A., Lane, P., and Salemme, F. R. (2001) J Biomol Screen 6, 429-40. • 2. Matulis, D., Kranz, J. K., Salemme, F. R., and Todd, M. J. (2005) Biochemistry 44, 5258-66.
The Kd values for certain compounds of Formula (I) were determined from a fit of the equation to the concentration-response plot of the fractional activity as a function of […]. For some experiments, quantitative NMR spectroscopy (qNMR) was used to measure concentration of the initial 100% DMSO compound solutions and, using the same fitting method, qKd values were determined.

[1] = biological target: T2, purified wild type MGL (wt-MGLL 6H-11-313) (Homo sapiens, UniProt Q99685); assay: MGL enzyme activity assay (4MU-B cleavage), wild type MGL; assay type: biochemical; conditions: wild type MGL 5 nM, 4MU-B 10 μM, 37° C.; read-out: MGL wild type inh IC50
T2 construct: purified wild type MGL (wt-MGLL 6H-11-313)
T2 sequence (Q99685 1-303): T1 sequence (Q99685 1-303 L169S/L176S) with S169L, S176L
Procedure, shortened: (§1)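 Enzyme in 20 mM PIPES pH 7.0, 150 mM NaCl, 0.001% Tween 20 with 4MU-B at 10 μM final and MGL at 5 nM final; compounds 17 to 0.0003 μM final, enzyme added last. Fluorescence (ex 335/em 440 nm) followed at 37° C for 5 min; IC50 from fit of fractional activity versus inhibitor concentration.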

[2] = tested on: MGL (rat brain homogenate); assay: 2-AG accumulation assay in rat brain homogenate; assay type: biochemical; conditions: compound 1 μM, percent of vehicle 2-AG accumulation
Procedure, shortened: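 Rat brain homogenate was incubated with compound for 15 min at 37° C., after which CaCl2 was added to a final concentration of 10 mM and incubation continued for 15 min at 37° C. in 5 mL total. Reactions were stopped with 6 mL of 2:1 chloroform/methanol, and 2-AG accumulated in the organic phase was quantified by HPLC/MS.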

[3] = biological target: T3, purified mutant MGL (mut-MGLL 11-313 L179S L186S) (Homo sapiens, UniProt Q99685, L169S/L176S); assay: MGL enzyme activity assay (4MU-B cleavage), mutant MGL; assay type: biochemical; conditions: mutant MGL 5 nM, 4MU-B 10 μM, 37° C.; read-out: MGL mutant inh IC50
T3 construct: purified mutant MGL (mut-MGLL 11-313 L179S L186S)
T3 sequence (Q99685 1-303 L169S/L176S): T1 sequence (Q99685 1-303 L169S/L176S)
Procedure, shortened: as §1

Kd (mutant MGL) [nM] | IC50 [1] [nM] | IC50 [3] [nM] | SMILES | Rat Brain 2AG % VehCntrl (%) @1 μM [2] [%]
 | 286 | 10 | CCN(C1CN(C(=O)c2ccc(-c3cccc(C(F)(F)F)c3)cc2)C1)[C@H]1CCN(C(=O)c2ccccc2)C1 [Cpd 53, (3S)-N-Ethyl-1-(phenylcarbonyl)-N-(1-{[3′-(trifluoromethyl)biphenyl-4-yl]carbonyl}azetidin-3-yl)pyrrolidin-3-amine] | 164
 | < 5 | < 5 | O=C(c1ccccc1)N1CC[C@H](NC2CN(C(=O)c3sc4cc(-c5ccc(C(F)(F)F)cc5)ccc4c3Cl)C2)C1 [Cpd 33, (3S)-N-[1-({3-Chloro-6-[4-(trifluoromethyl)phenyl]-1-benzothiophen-2-yl}carbonyl)azetidin-3-yl]-1-(phenylcarbonyl)pyrrolidin-3-amine] | 499
 | 41.4 | < 5 | O=C(c1ccc(-c2cccc(C(F)(F)F)c2)cc1)N1CC(NC2CN(C(=O)c3ccccc3)CC2F)C1 (centres unmarked) [Cpd 59, (3-((1-Benzoyl-4-fluoropyrrolidin-3-yl)amino)azetidin-1-yl)(3′-(trifluoromethyl)-[1,1′-biphenyl]-4-yl)methanone] | 389
 | 26.5 | 11.7 | CN(C1CN(C(=O)c2ccc(-c3cccc(C(F)(F)F)c3)cc2)C1)[C@H]1CCN(C(=O)c2ccccc2)C1 [Cpd 15, (3S)-N-Methyl-1-(phenylcarbonyl)-N-(1-{[3′-(trifluoromethyl)biphenyl-4-yl]carbonyl}azetidin-3-yl)pyrrolidin-3-amine] | 649
 | < 5 | 7 | O=C(c1ccc2c(-c3cccc(C(F)(F)F)c3)cccc2c1)N1CC(N[C@H]2CCN(C(=O)c3ccccc3)C2)C1 [Cpd 25, (3S)-1-(Phenylcarbonyl)-N-[1-({5-[3-(trifluoromethyl)phenyl]naphthalen-2-yl}carbonyl)azetidin-3-yl]pyrrolidin-3-amine] | 823

Continued, molecule first:

SMILES | Kd (mutant MGL) [nM] | IC50 [1] [nM] | IC50 [3] [nM] | Rat Brain 2AG % VehCntrl (%) @1 μM [2] [%]
O=C(c1cscn1)N1CC[C@H](NC2CN(C(=O)c3cccc4c3CCN4c3ccc(F)cc3)C2)C1 [Cpd 217, (3S)-N-(1-{[1-(4-Fluorophenyl)-2,3-dihydro-1H-indol-4-yl]carbonyl}azetidin-3-yl)-1-(1,3-thiazol-4-ylcarbonyl)pyrrolidin-3-amine] | 1960 | 723 |  | 
O=C(c1ccc2c(ccn2CC(F)F)c1)N1CC(N[C@H]2CCN(C(=O)c3nccs3)C2)C1 [Cpd 213, (3S)-N-(1-{[1-(2,2-Difluoroethyl)-1H-indol-5-yl]carbonyl}azetidin-3-yl)-1-(1,3-thiazol-2-ylcarbonyl)pyrrolidin-3-amine] | 963 | 1390 |  | 
O=C(c1nccs1)N1CC[C@H](NC2CN(C(=O)c3cc4ccn(-c5ccc(F)cc5)c4cc3Cl)C2)C1 [Cpd 225, (3S)-N-(1-{[6-Chloro-1-(4-fluorophenyl)-1H-indol-5-yl]carbonyl}azetidin-3-yl)-1-(1,3-thiazol-2-ylcarbonyl)pyrrolidin-3-amine] | 102 | 39.2 |  | 
O=C(c1nccs1)N1CC[C@H](NC2CN(C(=O)c3cn(-c4cccc(F)c4)c4ccccc34)C2)C1 [Cpd 218, (3S)-N-(1-{[1-(3-Fluorophenyl)-1H-indol-3-yl]carbonyl}azetidin-3-yl)-1-(1,3-thiazol-2-ylcarbonyl)pyrrolidin-3-amine] | 3450 | 1890 |  | 
O=C(c1ccc2c(-c3cccc(F)c3)c[nH]c2c1)N1CC(N[C@H]2CCN(C(=O)c3ccccc3)C2)C1 [Cpd 204, (3S)-N-(1-{[3-(3-Fluorophenyl)-1H-indol-6-yl]carbonyl}azetidin-3-yl)-1-(phenylcarbonyl)pyrrolidin-3-amine] | 186 | 344 |  | 
O=C(c1cscn1)N1CC[C@H](NC2CN(C(=O)c3cccc4c3ccn4-c3ccc(F)cc3)C2)C1 [Cpd 215, (3S)-N-(1-{[1-(4-Fluorophenyl)-1H-indol-4-yl]carbonyl}azetidin-3-yl)-1-(1,3-thiazol-4-ylcarbonyl)pyrrolidin-3-amine] | 1440 | 668 |  | 
CN(C(=O)Cn1ccc2cc(C(=O)N3CC(N[C@H]4CCN(C(=O)c5nccs5)C4)C3)ccc21)c1ccccc1 [Cpd 222, N-Methyl-N-phenyl-2-{5-[(3-{[(3S)-1-(1,3-thiazol-2-ylcarbonyl)pyrrolidin-3-yl]amino}azetidin-1-yl)carbonyl]-1H-indol-1-yl}acetamide] | 3240 | 1680 |  | 
O=C(c1nccs1)N1CC[C@H](NC2CN(C(=O)c3cn(-c4ccc(F)cc4)c4ccccc34)C2)C1 [Cpd 219, (3S)-N-(1-{[1-(4-Fluorophenyl)-1H-indol-3-yl]carbonyl}azetidin-3-yl)-1-(1,3-thiazol-2-ylcarbonyl)pyrrolidin-3-amine] | 4980 | 4980 |  | 
Cc1cc2c(ccn2-c2ccc(F)cc2)cc1C(=O)N1CC(N[C@H]2CCN(C(=O)c3nccs3)C2)C1 [Cpd 224, (3S)-N-(1-{[1-(4-Fluorophenyl)-6-methyl-1H-indol-5-yl]carbonyl}azetidin-3-yl)-1-(1,3-thiazol-2-ylcarbonyl)pyrrolidin-3-amine] | 218 | 224 |  | 
O=C(c1ccc2c(-c3ccccc3)c[nH]c2c1)N1CC(N[C@H]2CCN(C(=O)c3ccccc3)C2)C1 [Cpd 57, (3S)-1-(Phenylcarbonyl)-N-{1-[(3-phenyl-1H-indol-6-yl)carbonyl]azetidin-3-yl}pyrrolidin-3-amine] |  | 179 | 44.3 | 154
O=C(c1nccs1)N1CC[C@H](NC2CN(C(=O)c3ccc4c(ccn4-c4ccc(F)cc4)c3Cl)C2)C1 [Cpd 223, (3S)-N-(1-{[4-Chloro-1-(4-fluorophenyl)-1H-indol-5-yl]carbonyl}azetidin-3-yl)-1-(1,3-thiazol-2-ylcarbonyl)pyrrolidin-3-amine] | 143 | 14 |  | 
Cn1cc(-c2ccccc2)c2ccc(C(=O)N3CC(N[C@H]4CCN(C(=O)c5ccccc5)C4)C3)cc21 [Cpd 64, (3S)-N-{1-[(1-Methyl-3-phenyl-1H-indol-6-yl)carbonyl]azetidin-3-yl}-1-(phenylcarbonyl)pyrrolidin-3-amine] |  | 70.9 | 39.5 | 182
